4 molecules from ChEMBL document CHEMBL5357063, “Lysophosphatidylcholines Enriched with cis and trans Palmitoleic Acid Regulate Insulin Secretion via GPR119 Receptor” (ACS Med Chem Lett, 2024) can be followed below.

The test system of series [1] is EndoC-betaH1. Briefly: Cytotoxicity against human EndoC-betaH1 cells assessed as reduction in cell viability at 10 uM measured after 24 to 72 hrs by PrestoBlue cell viability assay. Format: toxicity, cell-based. As to conditions: endoc-betah1, 10 µM, time 24-72 hrs.
The subject of series [2] is EndoC-betaH1. In words: Induction of insulin secretion in human EndoC-betaH1 cells at 5 uM incubated for 1 hr by ELISA method. Format: functional, cell-based.
For series [3], the system named is EndoC-betaH1. In words: Induction of glucose stimulated insulin secretion in human EndoC-betaH1 cells at 5 uM incubated for 1 hr in presence of GPR40 antagonist by ELISA method. Type of series: functional, cell-based. (ELISA stands for enzyme-linked immunosorbent assay.)
Series [4] concerns EndoC-betaH1. In words: Induction of glucose stimulated insulin secretion in human EndoC-betaH1 cells at 5 uM incubated for 1 hr in presence of GPR55 antagonist by ELISA method. Format: functional, cell-based.
Series [5] relates to EndoC-betaH1. Briefly: Induction of glucose stimulated insulin secretion in human EndoC-betaH1 cells at 5 uM incubated for 1 hr in presence of GPR120 antagonist by ELISA method. Type of series: functional, cell-based.
Series [6] deals with EndoC-betaH1. In words: Induction of glucose stimulated insulin secretion in human EndoC-betaH1 cells at 5 uM incubated for 1 hr in presence of GPR119 antagonist by ELISA method (reference value: 2.03 fmol/microg). Format: functional.
The subject of series [7] is Cell membrane. In words: Induction of cell membrane permeabilization in human EndoC-betaH1 cells at 10 uM measured upto 3.5 mins propidium iodide staining based fluorescence analysis. Format: subcellular.
Series [8] relates to EndoC-betaH1. In words: Effect on intracellular calcium mobilization in human EndoC-betaH1 cells at 5 uM measured after 3 mins. Type of series: functional, cell-based.
Series [9] is described as follows: Induction of cAMP production in human EndoC-betaH1 cells at 5 uM by ELISA method. Type of series: functional. Background: Cyclic AMP is a second messenger, typically raised through Gs and lowered through Gi signalling.
Series [10] has as its system EndoC-betaH1. In words: Induction of cAMP production in human EndoC-betaH1 cells at 5 uM in presence of GPR40 antagonist by ELISA method. Format: functional, cell-based.
The test system of series [11] is EndoC-betaH1. In words: Induction of cAMP production in human EndoC-betaH1 cells at 5 uM in presence of GPR120 antagonist by ELISA method. Type of series: functional, cell-based.
For series [12], the system named is EndoC-betaH1. Briefly: Induction of cAMP production in human EndoC-betaH1 cells at 5 uM in presence of GPR55 antagonist by ELISA method. Type of series: functional, cell-based.
The nature of series [13]: Induction of cAMP production in human EndoC-betaH1 cells at 5 uM measured per mg of protein in presence of GPR119 antagonist by ELISA method. Format: functional.
The subject of series [14] is EndoC-betaH1. Briefly: Induction of glucose stimulated insulin secretion in human EndoC-betaH1 cells at 1 uM incubated for 1 hr in presence of GPR119 antagonist by ELISA method. Format: functional, cell-based.
The test system of series [15] is EndoC-betaH1. Briefly: Induction of glucose stimulated insulin secretion in human EndoC-betaH1 cells transfected with siRNA measured after 48 hrs in presence of GPR119 antagonist by ELISA method. Type of series: functional, cell-based.
The subject of series [16] is EndoC-betaH1. Briefly: Cytotoxicity against human EndoC-betaH1 cells assessed as reduction in cell viability at 10 to 1000 uM measured after 24 to 72 hrs by PrestoBlue cell viability assay. Format: toxicity, cell-based. The conditions noted are these: endoc-betah1, 1000 µM, dose lower 10 µM, time lower 24 hrs, dose upper 1000 µM, time upper 72 hrs.
In series [17] the test system is EndoC-betaH1. Briefly: Cytotoxicity against human EndoC-betaH1 cells assessed as reduction in cell viability at 1 uM measured after 24 to 72 hrs by PrestoBlue cell viability assay. Format: toxicity, cell-based. As to conditions: endoc-betah1, 1 µM, time 24-72 hrs.
The test system of series [18] is EndoC-betaH1. In words: Cytotoxicity against human EndoC-betaH1 cells assessed as reduction in cell viability at 5 uM measured after 48 to 72 hrs by PrestoBlue cell viability assay. Type of series: toxicity, cell-based. As to conditions: endoc-betah1, 5 µM, time 48-72 hrs.
Series [19] concerns EndoC-betaH1. In words: Induction of glucose stimulated insulin secretion in human EndoC-betaH1 cells at 5 uM incubated for 1 hr in presence of GPR119 antagonist by ELISA method (reference value: 1.97 fmol/microg). Format: functional.
Series [20] relates to EndoC-betaH1. Briefly: Induction of glucose stimulated insulin secretion in human EndoC-betaH1 cells at 100 nM incubated for 1 hr in presence of GPR119 antagonist by ELISA method. Format: functional, cell-based.
The test system of series [21] is EndoC-betaH1. In words: Induction of glucose stimulated insulin secretion in human EndoC-betaH1 cells at 5 uM incubated for 1 hr in presence of GPR119 antagonist by ELISA method. Format: functional, cell-based.
Series [22] relates to EndoC-betaH1. In words: Induction of cAMP production in human EndoC-betaH1 cells at 5 uM in presence of GPR119 antagonist by ELISA method. Format: functional, cell-based.

Calls of active or inactive are those of the source. No cut-off for these calls is given here.

For the molecule `CCCCCC/C=C\CCCCCCCC(=O)OC[C@@H](O)COP(=O)([O-])OCC[N+](C)(C)C`, the Activity result in series [1] was “Non-Toxic”; in series [6], 1.47 fmol/µg; in series [9], 1.87 pg/µg; in [13] it was 0.8 pmol. The result in [2], in [3], in series [4], in series [5], in series [10] and in [11] was Active. The result in [14] was Active. In addition, the outcome in [7], in series [8], in series [12] and in series [15] was inactive.
As for `CCCCCC/C=C/CCCCCCCC(=O)OC[C@@H](O)COP(=O)([O-])OCC[N+](C)(C)C`, the Activity result in series [16] is “Toxic”; in [17], “Non-Toxic”; in series [18], “Toxic”; in series [19], 1.34 fmol/µg; in series [13], 0.65 pmol. Further, the outcome in series [2], in [3], in [4], in series [5], in [10] and in [11] was Active. Besides, the result in series [7], in series [8] and in [15] was inactive.
For `CC(C)c1noc(C2CCN(c3ncnc(Nc4ccc(S(C)(=O)=O)cc4F)c3[N+](=O)[O-])CC2)n1`, in series [20], the outcome was Active.
`CCCCCCCCCCCCCCCC(=O)OC[C@@H](O)COP(=O)([O-])OCC[N+](C)(C)C`: the result in series [2], in [3], in series [4], in series [5], in series [10] and in series [11] was Active. The outcome in series [12] and in series [22] was Active. The result in [21], in [7] and in [8] was inactive.
